Experimental data taken from PubChem BioAssay (NCI).
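Compound exposure: 48 hours, 5 concentrations, 96-well plates. The concentration for 50% growth inhibition is given as GI50. TGI marks complete inhibition of growth.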

Columns and labels:
Assay in all cases: inhibition of tumour cell growth, NCI panel, 48 h
HOP-62 NSCLC = system: HOP-62 NSCLC
CAKI-1 renal = system: CAKI-1 renal
COLO 205 colon = system: COLO 205 colon
NCI-H226 lung = system: NCI-H226 lung
CCRF-CEM leukemia = system: CCRF-CEM leukemia
SF-539 CNS = system: SF-539 CNS
HL-60(TB) leukemia = system: HL-60(TB) leukemia
HCT-15 colon = system: HCT-15 colon
NCI-H522 lung = system: NCI-H522 lung
RPMI-8226 leukemia = system: RPMI-8226 leukemia

Row | SMILES | TGI (HOP-62 NSCLC) [µM] | TGI (CAKI-1 renal) [µM] | TGI (COLO 205 colon) [µM] | TGI (NCI-H226 lung) [µM] | TGI (CCRF-CEM leukemia) [µM] | TGI (SF-539 CNS) [µM] | TGI (HL-60(TB) leukemia) [µM] | TGI (HCT-15 colon) [µM] | TGI (NCI-H522 lung) [µM] | TGI (RPMI-8226 leukemia) [µM] | GI50 (CAKI-1 renal) [µM] | GI50 (NCI-H226 lung) [µM] | GI50 (CCRF-CEM leukemia) [µM] | GI50 (HL-60(TB) leukemia) [µM] | GI50 (HCT-15 colon) [µM] | GI50 (NCI-H522 lung) [µM] | GI50 (RPMI-8226 leukemia) [µM] | GI50 (HOP-62 NSCLC) [µM] | GI50 (COLO 205 colon) [µM] | GI50 (SF-539 CNS) [µM]
1 | Cc1nc2ccccc2c(=O)n1CC(=O)O | > 100 | > 100 | > 100 | > 100 | > 100 | > 100 | > 100 | > 100 | > 100 | > 100 | – | – | – | – | – | – | – | – | – | –
2 | CCOc1ccc2c(ccc(/C=C\c3cc(C)c4cccnc4c3O)[n+]2C)c1 | 28 | 29.3 | 5.82 | 3.77 | – | 10.9 | 1.05 | 23.7 | 5.14 | 13.2 | – | – | – | – | – | – | – | – | – | –
3 | CC(=O)O[C@H]1CC[C@@]2(C)C(=CC[C@@H]3[C@@H]2CC[C@]2(C)C(=N/O)/C(=C/c4ccc([N+](=O)[O-])cc4)C[C@@H]32)C1 | > 100 | 6.1 | 10 | 67.7 | > 100 | > 100 | 66.1 | > 100 | 8.94 | > 100 | – | – | – | – | – | – | – | – | – | –
4 | CC(C)=CC(=O)OC1C2C(C)C(=O)OC2C(O)C(C)C2C=CC(=O)C21C (configuration not stated) | 14.7 | 7.71 | 5.83 | 11.6 | 8.18 | 9.5 | 3.4 | 8.52 | 1.57 | 11.7 | – | – | – | – | – | – | – | – | – | –
5 | C[C@]12C=CC(=O)C=C1CC[C@@H]1[C@@H]2C(=O)C[C@@]2(C)[C@H]1CC[C@]2(O)C(=O)CO | > 100 | > 100 | > 100 | > 100 | > 100 | > 100 | > 100 | > 100 | > 100 | > 100 | – | – | – | – | – | – | – | – | – | –
6 | COc1cc2c3c(n(CCN(C)C)c(=O)c2cc1OC)-c1cc2c(cc1C3=O)OCO2 | > 86.1 | 44.3 | > 100 | 57.9 | 1.61 | 1.59 | > 35.8 | > 100 | > 100 | 19.2 | 0.747 | 1.08 | 0.294 | 1.02 | 2.32 | 2.51 | 0.0315 | – | – | –
7 | Cn1cc(C[C@@H](N)C(=O)O)c2ccccc21 | > 100 | > 100 | > 100 | > 100 | > 100 | > 100 | > 100 | > 100 | > 100 | > 100 | – | – | – | – | – | – | – | – | – | –
8 | O=C(O)c1cc(=O)[nH]c(=S)[nH]1 | > 100 | > 100 | > 100 | > 100 | > 100 | – | > 100 | > 100 | > 100 | > 100 | – | – | – | – | – | – | – | – | – | –
9 | CCN(CC)CCCC(Nc1c2ccc(Cl)cc2nc2ccc(OC)cc12)c1ccc(F)cc1 (configuration not stated) | 6.87 | 3.79 | 4.53 | 47.5 | 6.49 | 3.25 | 4.02 | 3.27 | 4.58 | 5.36 | 1.73 | 20.9 | 2.4 | 1.91 | 1.56 | 2.01 | 2.18 | 2.54 | 2.05 | 1.73
10 | CN1C2C=C(c3ccccc3)CC1CC2 (configuration not stated) | – | – | > 100 | – | > 100 | > 100 | > 100 | > 100 | > 100 | > 100 | – | – | – | – | – | – | – | – | – | –
11 | COc1c2c(cc3c(CCc4ccccc4)cc(=O)oc13)CCC(C)(C)O2 | > 100 | – | > 100 | > 100 | > 100 | – | > 100 | > 100 | – | > 100 | – | – | – | – | – | – | – | – | – | –
12 | CCCCN(CCCC)CCCCNc1c(C)cnc2cc(Cl)ccc12 | 68.2 | – | > 100 | 43.4 | > 100 | 27 | – | > 100 | 35.6 | – | – | – | – | – | – | – | – | – | – | –
13 | Cc1ccc(/C(=C/C=C(C#N)C#N)Sc2cc(Cl)ccc2Cl)cc1 | > 100 | 19.9 | 20.4 | 13.6 | – | 12.4 | – | 12.5 | 22.1 | – | – | – | – | – | – | – | – | – | – | –
14 | CC(/C=C/c1ccc([N+](=O)[O-])o1)=N/N1CC(CN2CCOCC2)OC1=O (configuration not stated) | > 100 | 40.7 | 29.8 | 52.1 | 47.3 | 48.8 | 55.7 | 40.3 | – | 41.9 | – | – | – | – | – | – | – | – | – | –
